According to paper PMC10799935, “Discovery of a peripheral 5HT2A antagonist as a clinical candidate for metabolic dysfunction-associated steatohepatitis” (Nature Communications, 2024):
Where “and” joins values, the source holds several entries; their conditions need not be identical. Equal values may be shown once. Entries after “also recorded” stand apart in the source; their conditions may differ.

Key:
[1] = target: T1, 5HT2B (h) (Homo sapiens, UniProt P41595); assay: 5HT subtype antagonism assay (Eurofins Cerep): 5HT2B; type: cell-based
T1 construct: host or cells: CHO cells
Description: (§1) The derivatives were evaluated at a concentration of 1 μM for their antagonist activity on the 5HT2A receptor (Tables 1–3)[33],[34]. Human 5HT2A stably transfected HEK293 cells (a type of cell derived from kidney embryos)[20] were seeded in a 96-well plate (Costar; 3603) at a density of 9 × 10^4 in 100 μL of minimum essential medium (Welgene; LM007-86) containing 10% dialyzed fetal bovine serum (Gibco; 30067–334) and 1% penicillin/streptomycin (Gibco; 15140-122) and kept in a 37 °C incubator for 24 h. The cells were stained with 100 μL of cytosolic calcium dye using the FLIPR calcium 6 assay solution (Molecular devices, #R8190) supplemented with 2.5 mM probenecid (Sigma; P8761) and incubated for 1 h at 37 °C. After 1 h, the designated amount of the compound was treated in each well and incubated for another 1 h at 37 °C. Then, the cells were loaded in a Flexstation 3 microplate reader (Molecular Devices; FlexStaion) and 50 μL of 5 μM 5HT (serotonin hydrochloride, Sigma; H9523) was injected from a source plate (Nunc 96-well polystyrene conical bottom MicroWell Plate, Thermo; 249662) and the fluorescence intensity (Ex/Em-485nm/ 525 nm) was measured. […]
Antagonism assay Source Stimulus Incubation Measured Detection Method […]

[2] = target: 5HT3 (Homo sapiens, UniProt P46098); assay: 5HT subtype selectivity: 5HT3; type: cell-based; details: concentration not given
Description: as §1, with “measured. (Supplementary Fig. 5) For determining the IC50 values of other 5HT subtypes, an Inhibition assay was performed by Eurofins Cerep (Study ID: FR095-0014987, FR095-0016438).” for “measured.”

[3] = AMES test (mutagenic potential)
[4] = Pharmacokinetic study in rats; type: in vivo, Sprague-Dawley rats; details: rat
Description: (§2) The experimental protocol for this study was approved by the IACUC of KPC Co., Ltd. (No. KPC IACUC-P203046; Beagle dogs) or QuBEST BIO (No.QBIACUC-A20131). All relevant ethical guidelines were followed. Beagle male dogs (11 ~ 20 months old) were purchased from ORIENT BIO Inc. and were housed in the barrier animal facility of KPC Co., Ltd. under a regular light-dark cycle (12-hour light/12-hour dark) at 21.1–23.4°C with 55.3–72.2% humidity. Food (standard irradiated pelleted commercial laboratory diet, Cargill Agri Purina, 300 g/dog.day) and water were provided ad libitum. All study dogs were returned to the laboratory colony after the study without any euthanasia. Sprague-Dawley male rats (7 weeks old) were purchased from SAMTAKOBIOKOREA, Inc. and were housed in the barrier animal facility of Nonclinical Research Center, QuBEST BIO under a regular light-dark cycle (12-hour light/12-hour dark) at 19.7–22.7°C with 54.5–65.6% humidity. Food (standard irradiated pelleted commercial laboratory diet, Purina Rodent Chow, 38057) and water were provided ad libitum. All study rats were euthanized by CO2 gas upon study completion.
(§3) Blood samples were collected at the scheduled times up to 24 h post-dose (IV: 0.083, 0.25, 0.5, 1, 2, 4, 8, 12 and 24 h post-dose, PO: 0.25, 0.5, 1, 2, 4, 8, 12 and 24 h post-dose). Determination of compound 11c in plasma was performed by UHPLC-MS/MS. Pharmacokinetic parameters were calculated by noncompartmental analysis using Phoenix® WinNonlin® (Ver. 8.3‘, Certara).

[5] = Pharmacokinetic study in dogs; type: in vivo, Beagle dogs; details: dog
Description: as §2, §3

[6] = tested on: HFD-fed C57BL/6J mice; assay: DIO mice: fasting glucose levels; type: in vivo, mouse; details: PO, in mg/dL (unit assumed)
[7] = target: CYP1A2 (Homo sapiens, UniProt P05177); assay: in vitro
[8] = male, Sprague-Dawley, plasma, 5 mg/kg, IV (5 mpk)
[9] = male, beagle, plasma, 5 mg/kg, IV (5 mpk)
[10] = male, beagle, plasma, 5 mg/kg, PO (5 mpk)

T1 sequence (P41595 whole entry): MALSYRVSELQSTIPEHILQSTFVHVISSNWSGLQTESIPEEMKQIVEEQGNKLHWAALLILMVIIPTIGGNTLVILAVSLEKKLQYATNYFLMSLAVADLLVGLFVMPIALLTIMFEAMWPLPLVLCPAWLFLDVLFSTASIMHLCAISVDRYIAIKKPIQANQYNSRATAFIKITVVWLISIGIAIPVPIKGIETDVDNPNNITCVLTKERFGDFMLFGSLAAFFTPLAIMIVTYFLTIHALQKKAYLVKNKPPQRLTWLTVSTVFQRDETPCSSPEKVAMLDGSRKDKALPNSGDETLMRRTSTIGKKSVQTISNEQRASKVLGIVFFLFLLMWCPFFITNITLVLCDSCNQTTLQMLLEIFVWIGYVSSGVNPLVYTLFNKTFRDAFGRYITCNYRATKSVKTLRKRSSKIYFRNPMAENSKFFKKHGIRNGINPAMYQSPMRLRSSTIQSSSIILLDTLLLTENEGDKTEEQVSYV
Sequence of 5HT3 (P46098 24-478): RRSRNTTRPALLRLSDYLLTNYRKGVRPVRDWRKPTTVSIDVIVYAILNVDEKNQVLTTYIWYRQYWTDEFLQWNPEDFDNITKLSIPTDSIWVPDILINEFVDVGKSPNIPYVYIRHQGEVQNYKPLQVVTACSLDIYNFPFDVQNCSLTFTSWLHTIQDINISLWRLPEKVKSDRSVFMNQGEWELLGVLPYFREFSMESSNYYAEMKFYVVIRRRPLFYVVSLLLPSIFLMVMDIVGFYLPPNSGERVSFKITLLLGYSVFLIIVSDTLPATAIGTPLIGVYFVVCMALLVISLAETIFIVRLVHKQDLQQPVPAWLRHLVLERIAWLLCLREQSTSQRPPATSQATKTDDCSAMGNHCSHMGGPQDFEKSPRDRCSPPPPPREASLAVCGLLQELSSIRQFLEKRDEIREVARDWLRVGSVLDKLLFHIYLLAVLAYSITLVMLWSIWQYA
Sequence of CYP1A2 (P05177 whole entry): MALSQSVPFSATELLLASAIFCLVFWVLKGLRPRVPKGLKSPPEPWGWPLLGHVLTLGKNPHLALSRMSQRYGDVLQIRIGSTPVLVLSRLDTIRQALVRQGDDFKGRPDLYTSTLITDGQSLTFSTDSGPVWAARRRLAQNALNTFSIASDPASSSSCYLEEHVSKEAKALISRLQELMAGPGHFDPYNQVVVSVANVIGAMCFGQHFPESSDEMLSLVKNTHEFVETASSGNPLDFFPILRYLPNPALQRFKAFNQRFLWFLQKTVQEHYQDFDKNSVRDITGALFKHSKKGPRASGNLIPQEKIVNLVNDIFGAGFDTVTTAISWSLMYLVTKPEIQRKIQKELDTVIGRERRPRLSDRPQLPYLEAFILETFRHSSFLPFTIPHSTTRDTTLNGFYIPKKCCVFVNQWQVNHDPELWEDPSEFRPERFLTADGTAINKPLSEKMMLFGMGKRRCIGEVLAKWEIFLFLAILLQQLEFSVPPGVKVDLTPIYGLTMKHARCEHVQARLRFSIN

For `Cc1nc2n(c(=O)c1CCN1CCC(=C3c4ccc(Cl)cc4CCc4cccnc43)CC1)CCCC2O` (stereo not shown) [Compound 11c], the “Selectivity 2B: % inhibition” value ([1]; concentration not given) was 94%, the IC50 ([1]; read-out: Selectivity 2B: IC50) was 290 nM and the “Selectivity 3: % inhibition” value [2] was -1%. For the same compound, the AMES [3] was “didn’t show mutagenic potential; also recorded: Negative”, the AUC [4, 8] was 1550 ng·h/mL and the clearance [4, 8] was 47 mL/min/kg. The AUC ([4]; male, Sprague-Dawley, plasma, 5 mg/kg, PO (5 mpk)) was 980 ng·h/mL, the bioavailability ([4]; male, Sprague-Dawley, plasma, 5 mg/kg, PO (5 mpk), read-out: F (%)) was 63% and the AUC ([4]; male, Sprague-Dawley, plasma, 10 mg/kg, PO (10 mpk)) was 2880 ng·h/mL. The bioavailability ([4]; male, Sprague-Dawley, plasma, 10 mg/kg, PO (10 mpk), read-out: F (%)) was 92.5%, the half-life ([4]; male, Sprague-Dawley, plasma, iv, 5 mg/kg, IV (5 mpk)) was 4.14 h and the half-life ([4]; male, Sprague-Dawley, plasma, po, 5 mg/kg, PO (5 mpk)) was 2.5 h. For the same compound, the half-life ([4]; male, Sprague-Dawley, plasma, po, 10 mg/kg, PO (10 mpk)) was 2.7 h, the bioavailability ([4]; male, Sprague-Dawley, plasma, po, rats (summary statement), read-out: oral bioavailability) was over 60% and the “V” value ([4]; IV (5 mpk)) was 8.86 L/kg. The “T1/2” value ([4]; IV (5 mpk), 5 mg/kg) was 4.4 h, the “V” value ([5]; IV (5 mpk)) was 4.36 L/kg and the bioavailability ([5]; male, beagle, plasma, po, 5 mpk, dogs (summary statement), read-out: oral bioavailability) was over 60%. It also gave an AUC [5, 9] of 16800 ng·h/mL, a clearance [5, 9] of 7 mL/min/kg and a half-life [5, 9] of 8.6 h. For the same compound, the AUC [5, 10] was 19100 ng·h/mL, the half-life [5, 10] was 10.2 h and the bioavailability ([5]; male, beagle, plasma, 5 mg/kg, PO (5 mpk), read-out: F (%)) was 73%. For the same compound, the “6hr Fasting Glucose Levels, Average 7W” value ([6]; 5mpk, group mean) was 158.2, the “6hr Fasting Glucose Levels, Average 7W” value ([6]; 5mpk, individual animals, 5 mg/kg) was 172.5 and 172.0 and 150.5 and 154.0 and 119.5 and 188.0 and 151.0 and the “6hr Fasting Glucose Levels, Blood Glucose Level” value ([6]; 5mpk, 2021.03.29, duplicate readings of individual animals, 5 mg/kg) was 173.0 and 172.0 and 155.0 and 189.0 and 149.0 and 152.0 and 158.0 and 150.0 and 127.0 and 112.0 and 181.0 and 195.0 and 140.0 and 162.0. For the same compound, the “6hr Fasting Glucose Levels, Average 7W” value ([6]; 10mpk, group mean) was 134.9, the “6hr Fasting Glucose Levels, Average 7W” value ([6]; 10mpk, individual animals, 10 mg/kg) was 116.0 and 126.0 and 147.5 and 160.5 and 170.0 and 89.5 and the “6hr Fasting Glucose Levels, Blood Glucose Level” value ([6]; 10mpk, 2021.03.29, duplicate readings of individual animals, 10 mg/kg) was 117.0 and 115.0 and 121.0 and 131.0 and 148.0 and 147.0 and 163.0 and 158.0 and 171.0 and 169.0 and 89.0 and 90.0. It also gave an inhibition at 10 µM [7] of under 1%.
